Drawing on PubChem BioAssay AID258 (DTP/NCI, 2004), this text covers T/C for seven compounds.

The structures appear in SMILES notation. Values joined by “and” are separate entries in the source; they are usually repeats but may differ in a detail not shown here. Equal values may be shown once. Toxic doses and inconclusive results are not listed.

The subject of the test is CD2F1 mice, L1210 leukemia sc, survival T/C. Description: NCI In Vivo Anticancer Drug Screen. Data for tumor model L1210 Leukemia (subcutaneous) in CD2F1 (CDF1) mice. As to conditions: higher = longer survival. The method in brief: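 Read-out: survival or tumor size. Value = treated (T) / vehicle control (C). Transplantable tumor in mice.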

Regarding `CN(C)/N=N/c1nc[nH]c1C(N)=O`, the T/C runs as follows: (endpoint: mean survival time, dose: 39.0 mg/kg/injection, schedule: Q01DX009 (sc), vehicle: steriod suspending solution) 118 % of control; (endpoint: mean survival time, dose: 50.0 mg/kg/injection, schedule: Q01DX017 (sc), vehicle: steriod suspending solution) 117 % of control; (endpoint: mean survival time, dose: 65.0 mg/kg/injection, schedule: Q01DX009 (sc), vehicle: steriod suspending solution) 118 % of control; (endpoint: mean survival time, dose: 200.0 mg/kg/injection, schedule: Q01DX017 (sc), vehicle: steriod suspending solution) 156 % of control; (endpoint: mean survival time, dose: 400.0 mg/kg/injection, schedule: Q01DX017 (sc), vehicle: steriod suspending solution) 172 % of control; (endpoint: median survival time, dose: 6.25 mg/kg/injection, schedule: Q01DX009 (ip), vehicle: saline) 104 % of control. Moreover, the T/C runs as follows: (endpoint: median survival time, dose: 12.5 mg/kg/injection, schedule: Q01DX009 (ip), vehicle: saline) 121 % of control; (endpoint: median survival time, dose: 39.0 mg/kg/injection, schedule: Q01DX009 (sc), vehicle: steriod suspending solution) 114 % of control; (endpoint: median survival time, dose: 39.0 mg/kg/injection, schedule: Q01DX Z (sc), vehicle: steriod suspending solution) 111 % of control; (endpoint: median survival time, dose: 50.0 mg/kg/injection, schedule: Q01DX017 (sc), vehicle: steriod suspending solution) 118 % of control and 122 % of control; (endpoint: median survival time, dose: 65.0 mg/kg/injection, schedule: Q01DX009 (sc), vehicle: steriod suspending solution) 117 % of control; (endpoint: median survival time, dose: 65.0 mg/kg/injection, schedule: Q01DX Z (sc), vehicle: carboxymethylcellulose (CMC)) 100 % of control. In addition, the T/C by setting is: (endpoint: median survival time, dose: 65.0 mg/kg/injection, schedule: Q01DX Z (sc), vehicle: steriod suspending solution) 116 % of control; (endpoint: median survival time, dose: 100.0 mg/kg/injection, schedule: Q01DX009 (ip), vehicle: saline with Tween-80) 157 % of control; (endpoint: median survival time, dose: 100.0 mg/kg/injection, schedule: Q01DX009 (ip), vehicle: saline) 157 % of control; (endpoint: median survival time, dose: 100.0 mg/kg/injection, schedule: Q01DX009 (sc), vehicle: saline) 151 % of control; (endpoint: median survival time, dose: 108.0 mg/kg/injection, schedule: Q01DX Z (sc), vehicle: carboxymethylcellulose (CMC)) 100 % of control; (endpoint: median survival time, dose: 150.0 mg/kg/injection, schedule: Q01DX009 (ip), vehicle: saline) 178 % of control. The T/C is 100 % of control (endpoint: median survival time, dose: 180.0 mg/kg/injection, schedule: Q01DX Z (sc), vehicle: carboxymethylcellulose (CMC)); 160 % of control (endpoint: median survival time, dose: 200.0 mg/kg/injection, schedule: Q01DX009 (ip), vehicle: saline with Tween-80); 166 % of control (endpoint: median survival time, dose: 200.0 mg/kg/injection, schedule: Q01DX009 (ip), vehicle: saline); 152 % of control and 155 % of control (endpoint: median survival time, dose: 200.0 mg/kg/injection, schedule: Q01DX017 (sc), vehicle: steriod suspending solution); 186 % of control (endpoint: median survival time, dose: 225.0 mg/kg/injection, schedule: Q01DX009 (sc), vehicle: saline); 172 % of control (endpoint: median survival time, dose: 300.0 mg/kg/injection, schedule: Q01DX009 (ip), vehicle: saline). In addition, the T/C is, setting by setting: (endpoint: median survival time, dose: 300.0 mg/kg/injection, schedule: Q01DX009 (sc), vehicle: steriod suspending solution) 153 % of control; (endpoint: median survival time, dose: 300.0 mg/kg/injection, schedule: Q01DX Z (sc), vehicle: carboxymethylcellulose (CMC)) 100 % of control; (endpoint: median survival time, dose: 300.0 mg/kg/injection, schedule: Q01DX Z (sc), vehicle: steriod suspending solution) 155 % of control; (endpoint: median survival time, dose: 400.0 mg/kg/injection, schedule: Q01DX017 (sc), vehicle: steriod suspending solution) 175 % of control and 177 % of control; (endpoint: median survival time, dose: 500.0 mg/kg/injection, schedule: Q01DX Z (sc), vehicle: carboxymethylcellulose (CMC)) 111 % of control and 100 % of control; (endpoint: median survival time, dose: 600.0 mg/kg/injection, schedule: Q01DX009 (sc), vehicle: saline + alcohol) 160 % of control. The T/C is, setting by setting: (endpoint: median survival time, dose: 600.0 mg/kg/injection, schedule: Q01DX009 (sc), vehicle: saline) 118 % of control; (endpoint: median survival time, dose: 800.0 mg/kg/injection, schedule: Q01DX009 (ip), vehicle: saline with Tween-80) 96 % of control; (endpoint: median survival time, dose: 833.0 mg/kg/injection, schedule: Q01DX Z (sc), vehicle: carboxymethylcellulose (CMC)) 150 % of control; (endpoint: median survival time, dose: 900.0 mg/kg/injection, schedule: Q01DX009 (sc), vehicle: saline + alcohol) 155 % of control; (endpoint: median survival time, dose: 1200.0 mg/kg/injection, schedule: Q01DX009 (sc), vehicle: saline) 90 % of control; (endpoint: median survival time, dose: 1388.0 mg/kg/injection, schedule: Q01DX Z (sc), vehicle: carboxymethylcellulose (CMC)) 155 % of control.
Regarding `CCN(CC)c1ccc(/C=C/c2ccnc3ccccc23)cc1`, the T/C is, setting by setting: (endpoint: median survival time, dose: 39.0 mg/kg/injection, schedule: Q01DX Z (sc), vehicle: water) 100 % of control; (endpoint: median survival time, dose: 65.0 mg/kg/injection, schedule: Q01DX Z (sc), vehicle: water) 100 % of control; (endpoint: median survival time, dose: 108.0 mg/kg/injection, schedule: Q01DX Z (sc), vehicle: water) 100 % of control; (endpoint: median survival time, dose: 180.0 mg/kg/injection, schedule: Q01DX Z (sc), vehicle: water) 100 % of control; (endpoint: median survival time, dose: 300.0 mg/kg/injection, schedule: Q01DX Z (sc), vehicle: water) 100 % of control; (endpoint: median survival time, dose: 500.0 mg/kg/injection, schedule: Q01DX Z (sc), vehicle: water) 100 % of control.
Consider `O=C/C(Br)=C(/Br)C(=O)O`, for which the T/C by setting is: (endpoint: median survival time, dose: 3.0 mg/kg/injection, schedule: Q01DX Z (sc), vehicle: other) 100 % of control; (endpoint: median survival time, dose: 5.0 mg/kg/injection, schedule: Q01DX Z (sc), vehicle: other) 100 % of control; (endpoint: median survival time, dose: 8.4 mg/kg/injection, schedule: Q01DX Z (sc), vehicle: other) 100 % of control; (endpoint: median survival time, dose: 14.0 mg/kg/injection, schedule: Q01DX Z (sc), vehicle: other) 100 % of control; (endpoint: median survival time, dose: 39.0 mg/kg/injection, schedule: Q01DX Z (sc), vehicle: other) 100 % of control.
Turning to `CCn1cnc2c(=S)nc[nH]c21`, the T/C (endpoint: median survival time, dose: 833.0 mg/kg/injection, schedule: Q01DX Z (sc), vehicle: methylcellulose (MC)) is 120 % of control.
For the compound `CN(Cc1cnc2nc(N)nc(N)c2n1)c1c(Cl)cc(C(=O)NC(CCC(=O)O)C(=O)O)cc1Br` (stereo not drawn), the T/C reads like this: (endpoint: median survival time, dose: 17.0 mg/kg/injection, schedule: Q01DX Z (sc), vehicle: other) 294 % of control and 318 % of control; (endpoint: median survival time, dose: 28.0 mg/kg/injection, schedule: Q01DX Z (sc), vehicle: other) 356 % of control and 511 % of control; (endpoint: median survival time, dose: 46.0 mg/kg/injection, schedule: Q01DX Z (sc), vehicle: other) 350 % of control; (endpoint: median survival time, dose: 47.0 mg/kg/injection, schedule: Q01DX Z (sc), vehicle: other) 838 % of control; (endpoint: median survival time, dose: 47.1 mg/kg/injection, schedule: Q01DX Z (oral), vehicle: other) 200 % of control; (endpoint: median survival time, dose: 76.0 mg/kg/injection, schedule: Q01DX Z (sc), vehicle: other) 262 % of control. Also, the T/C reads like this: (endpoint: median survival time, dose: 78.0 mg/kg/injection, schedule: Q01DX Z (sc), vehicle: other) 250 % of control; (endpoint: median survival time, dose: 78.1 mg/kg/injection, schedule: Q01DX Z (oral), vehicle: other) 183 % of control; (endpoint: median survival time, dose: 126.0 mg/kg/injection, schedule: Q01DX Z (sc), vehicle: other) 193 % of control; (endpoint: median survival time, dose: 130.0 mg/kg/injection, schedule: Q01DX Z (sc), vehicle: other) 172 % of control; (endpoint: median survival time, dose: 130.1 mg/kg/injection, schedule: Q01DX Z (oral), vehicle: other) 172 % of control; (endpoint: median survival time, dose: 216.0 mg/kg/injection, schedule: Q01DX Z (sc), vehicle: other) 150 % of control. Further, the T/C runs as follows: (endpoint: median survival time, dose: 216.1 mg/kg/injection, schedule: Q01DX Z (oral), vehicle: other) 166 % of control; (endpoint: median survival time, dose: 360.0 mg/kg/injection, schedule: Q01DX Z (sc), vehicle: other) 155 % of control; (endpoint: median survival time, dose: 360.1 mg/kg/injection, schedule: Q01DX Z (oral), vehicle: other) 161 % of control.
As to `COc1cc2c(c(OC)c1OC)-c1ccc(N)c(=O)cc1[C@@H](NC(C)=O)CC2`, the T/C by setting is: (endpoint: median survival time, dose: 1.0 mg/kg/injection, schedule: Q01DX Z (sc), vehicle: water) 90 % of control; (endpoint: median survival time, dose: 2.0 mg/kg/injection, schedule: Q01DX Z (sc), vehicle: water) 109 % of control; (endpoint: median survival time, dose: 4.0 mg/kg/injection, schedule: Q01DX Z (sc), vehicle: water) 109 % of control; (endpoint: median survival time, dose: 8.0 mg/kg/injection, schedule: Q01DX Z (sc), vehicle: water) 109 % of control; (endpoint: median survival time, dose: 16.0 mg/kg/injection, schedule: Q01DX Z (sc), vehicle: water) 109 % of control.
For the compound `NC(=O)c1ncn2c(=O)n(CCCl)nnc12`, the T/C is, setting by setting: (endpoint: median survival time, dose: 1.56 mg/kg/injection, schedule: Q01DX009 (ip), vehicle: suspension in saline) 123 % of control; (endpoint: median survival time, dose: 6.25 mg/kg/injection, schedule: Q01DX009 (ip), vehicle: suspension in saline) 195 % of control; (endpoint: median survival time, dose: 12.5 mg/kg/injection, schedule: Q01DX009 (ip), vehicle: suspension in saline) 309 % of control; (endpoint: median survival time, dose: 25.0 mg/kg/injection, schedule: Q01DX009 (ip), vehicle: suspension in saline) 206 % of control; (endpoint: median survival time, dose: 50.0 mg/kg/injection, schedule: Q01DX009 (ip), vehicle: suspension in saline) 100 % of control.
